Results published in ChEMBL document CHEMBL4334507, “Development and Characterization of a Fluorescent Probe for GLS1 and the Application for High-Throughput Screening of Allosteric Inhibitors” (J Med Chem, 2019).
pIC50, pKd: −log10 of the molar value. In brackets after ≈: the same amount, converted by molar mass.

How the values were obtained:
[1] = biological target: T1, Glutaminase kidney isoform, mitochondrial (Homo sapiens, UniProt O94925); test: Inhibition of N-[2-[(3',6'-dihydroxy-1-oxo-spiro[isobenzofuran-3,9'-xanthene]-5-yl)carbamothioylamino]ethyl]-N'-[6-[4-[5-[[2-(2-pyridyl)acetyl]amino]-1,3,4-thiadiazol-2-yl]butyl]pyridazin-3-yl]pentanediamide binding to human GLS1 expressed in Escherichia coli strain BL21 (DE3)pLysS by fluorescence polarization binding assay
T1 sequence (O94925 whole entry): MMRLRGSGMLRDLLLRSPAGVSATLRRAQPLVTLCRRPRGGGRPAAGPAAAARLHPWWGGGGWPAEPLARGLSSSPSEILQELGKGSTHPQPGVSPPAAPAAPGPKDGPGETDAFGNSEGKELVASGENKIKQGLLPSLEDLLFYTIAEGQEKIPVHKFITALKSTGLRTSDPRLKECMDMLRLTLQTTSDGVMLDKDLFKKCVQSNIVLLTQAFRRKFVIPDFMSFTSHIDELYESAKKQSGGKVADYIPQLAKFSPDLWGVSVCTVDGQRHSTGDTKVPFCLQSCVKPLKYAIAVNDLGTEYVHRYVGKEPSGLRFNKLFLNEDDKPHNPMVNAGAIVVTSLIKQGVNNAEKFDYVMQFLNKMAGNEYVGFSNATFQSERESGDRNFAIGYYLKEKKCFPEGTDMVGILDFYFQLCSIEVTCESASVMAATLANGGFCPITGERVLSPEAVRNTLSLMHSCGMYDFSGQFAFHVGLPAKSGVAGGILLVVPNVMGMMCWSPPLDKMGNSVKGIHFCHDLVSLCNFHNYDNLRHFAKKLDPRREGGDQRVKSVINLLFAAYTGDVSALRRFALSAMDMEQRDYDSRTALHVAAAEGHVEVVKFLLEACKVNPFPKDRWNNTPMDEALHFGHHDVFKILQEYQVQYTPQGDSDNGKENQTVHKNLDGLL

HCT-116 = test: Antiproliferative activity against human HCT116 cells assessed as reduction in cell viability incubated for 72 hrs by MTT assay; format: functional, cell-based; conditions: HCT-116, 72 h
MDA-MB-436 = test: Antiproliferative activity against human MDA-MB-436 cells assessed as reduction in cell viability incubated for 72 hrs by MTT assay; format: functional, cell-based; conditions: MDA-MB-436, 72 h
[2] = biological target: T1, Glutaminase kidney isoform, mitochondrial; test: Inhibition of human GLS1 expressed in Escherichia coli strain BL21 (DE3)pLysS pre-incubated for 10 mins before glutamine addition and measured after 60 mins by bovine liver glutamate dehydrogenase based coupled enzyme assay
[3] = Distribution coefficient, logD of the compound incubated for 72 hrs by LC-MS based shake-flask method; format: physicochemical; conditions: octanol/water
[4] = biological target: T1, Glutaminase kidney isoform, mitochondrial; test: (§1) Binding affinity to human GLS1 expressed in Escherichia coli strain BL21 (DE3)pLysS by SPR assay
[5] = biological target: T2, Glutaminase kidney isoform, mitochondrial (Homo sapiens) (UniProt O94925)
T2 sequence (whole entry): T1 sequence (O94925 whole entry)
Description: Binding affinity to human GLS1 expressed in Escherichia coli strain BL21 (DE3)pLysS assessed as change in melting temperature by SYPRO orange dye based protein thermal shift assay

[6] = Intrinsic aqueous solubility incubated for 72 hrs by LC-MS based shake-flask method; format: physicochemical; conditions: buffer
[7] = Ratio of intrinsic aqueous solubility of the test compound to CB839 incubated for 72 hrs by LC-MS based shake-flask method; format: physicochemical; conditions: buffer
[8] = biological target: Serum albumin (Bos taurus) (UniProt P02769); test: Binding affinity to BSA by fluorescence polarization binding assay relative to control; conditions: bovine
Chain of Serum albumin (Bos taurus) (P02769 whole entry, looked up, canonical isoform): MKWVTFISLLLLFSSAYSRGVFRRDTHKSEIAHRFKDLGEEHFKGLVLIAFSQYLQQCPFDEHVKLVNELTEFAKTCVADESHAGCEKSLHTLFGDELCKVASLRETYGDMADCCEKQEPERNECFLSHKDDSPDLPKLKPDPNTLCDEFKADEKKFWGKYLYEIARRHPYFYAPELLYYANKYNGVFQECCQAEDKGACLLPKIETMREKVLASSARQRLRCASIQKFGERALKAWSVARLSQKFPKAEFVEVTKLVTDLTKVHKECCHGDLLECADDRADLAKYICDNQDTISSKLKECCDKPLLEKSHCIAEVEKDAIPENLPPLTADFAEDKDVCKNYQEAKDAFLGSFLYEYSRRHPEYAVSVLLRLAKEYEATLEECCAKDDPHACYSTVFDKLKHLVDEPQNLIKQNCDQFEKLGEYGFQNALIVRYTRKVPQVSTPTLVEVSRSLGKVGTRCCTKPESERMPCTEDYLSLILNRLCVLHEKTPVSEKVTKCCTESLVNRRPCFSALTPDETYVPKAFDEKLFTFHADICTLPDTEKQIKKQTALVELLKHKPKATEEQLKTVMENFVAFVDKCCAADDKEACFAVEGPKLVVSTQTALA

[9] = biological target: T2, Glutaminase kidney isoform, mitochondrial (Homo sapiens); test: Binding affinity to 1 uM human GLS1 expressed in Escherichia coli strain BL21 (DE3)pLysS by fluorescence polarization binding assay relative to control
[10] = biological target: T1, Glutaminase kidney isoform, mitochondrial; test: Binding affinity to human GLS1 expressed in Escherichia coli strain BL21 (DE3)pLysS by fluorescence polarization binding assay
[11] = biological target: T2, Glutaminase kidney isoform, mitochondrial (Homo sapiens); test: as §1

| SMILES | pIC50 [1] | pIC50 (HCT-116) | pIC50 (MDA-MB-436) | pIC50 [2] | further results |
| --- | --- | --- | --- | --- | --- |
| N#Cc1ccc(Cn2cc(CCC(=O)Nc3nnc(CCCCc4nnc(NC(=O)Cc5ccccc5)s4)s3)nn2)cc1 | 6.03 | 5.29 | 5.53 | 6.08 | – |
| Cc1cccc(C)c1Cn1cc(CCC(=O)Nc2ccc(CCCCc3nnc(NC(=O)Cc4ccccn4)s3)nn2)nn1 | 6.34 | 6.57 | 6.47 | 6.49 | – |
| O=C(CCc1cn(Cc2ccc([N+](=O)[O-])cc2)nn1)Nc1nnc(CCCCc2nnc(NC(=O)Cc3ccccc3)s2)s1 | 5.56 | 5.98 | 4.97 | 5.60 | – |
| Cc1ccc(Cn2cc(CCC(=O)Nc3nnc(CCCCc4nnc(NC(=O)Cc5ccccc5)s4)s3)nn2)cc1 | 6.25 | 5.80 | 5.75 | 6.38 | – |
| Cc1cccc(C)c1Cn1cc(CCC(=O)Nc2nnc(CCCCc3nnc(NC(=O)Cc4ccccc4)s3)s2)nn1 | 6.11 | 6.13 | 6.12 | 6.28 | – |
| O=C(CCc1cn(Cc2ccc(C(F)(F)F)cc2)nn1)Nc1ccc(CCCCc2nnc(NC(=O)Cc3ccccn3)s2)nn1 | 7.14 | 6.74 | 6.68 | 7.36 | – |
| COc1ccc(Cn2cc(CCC(=O)Nc3nnc(CCCCc4nnc(NC(=O)Cc5ccccc5)s4)s3)nn2)cc1OC | 6.07 | 6.35 | 6.10 | 6.30 | – |
| O=C(CCc1cn(Cc2ccc(Br)cc2)nn1)Nc1nnc(CCCCc2nnc(NC(=O)Cc3ccccc3)s2)s1 | 5.97 | 5.73 | 5.39 | 6.01 | – |
| COc1ccc(Cn2cc(CCC(=O)Nc3ccc(CCCCc4nnc(NC(=O)Cc5ccccn5)s4)nn3)nn2)cc1 | 6.72 | 6.64 | 6.20 | 6.82 | – |
| O=C(Cc1ccccc1)Nc1nnc(CCSCCc2nnc(NC(=O)Cc3ccccc3)s2)s1 | – | 5.99 | 5.62 | – | – |
| O=C(Cc1cccc(OC(F)(F)F)c1)Nc1ccc(CCCCc2nnc(NC(=O)Cc3ccccn3)s2)nn1 | – | 7.22 | 6.28 | – | logD at 72 h [3]: 1.9 |
| COc1ccc(Cn2cc(CCC(=O)Nc3ccc(CCCCc4nnc(NC(=O)Cc5ccccn5)s4)nn3)nn2)cc1OC | 6.40 | 6.42 | 6.40 | 6.48 | – |
| O=C(CCc1cn(Cc2ccc(F)cc2)nn1)Nc1nnc(CCCCc2nnc(NC(=O)Cc3ccccc3)s2)s1 | 5.91 | 5.96 | 6.46 | 5.95 | – |
| Cc1ccc(Cn2cc(CCC(=O)Nc3nnc(CCCCc4nnc(NC(=O)Cc5ccccc5)s4)s3)nn2)c(C)c1 | 6.30 | 6.00 | 6.37 | 6.55 | pKd [4]: 6.46; ΔTm [5]: 7.7 °C |
| O=C(CCc1cn(Cc2ccccc2)nn1)Nc1nnc(CCCCc2nnc(NC(=O)Cc3ccccc3)s2)s1 | 6.04 | 5.32 | 5.94 | 6.05 | – |
| O=C(CCc1cn(Cc2ccc(Cl)cc2)nn1)Nc1nnc(CCCCc2nnc(NC(=O)Cc3ccccc3)s2)s1 | 5.86 | 5.47 | 5.94 | 5.90 | – |
| O=C(CCc1cn(Cc2ccc(OC(F)(F)F)cc2)nn1)Nc1ccc(CCCCc2nnc(NC(=O)Cc3ccccn3)s2)nn1 | 6.41 | 6.60 | 6.51 | 6.52 | – |
| Cc1ccc(Cn2cc(CCC(=O)Nc3ccc(CCCCc4nnc(NC(=O)Cc5ccccn5)s4)nn3)nn2)cc1 | 7.39 | 6.82 | 6.74 | 7.57 | solubility thermodynamic at 72 h [6]: 20.8 µg/mL (≈ 34.9 µM); Ratio [7]: 9; pKd [4]: 7.17; ΔTm [5]: 16.5 °C; logD at 72 h [3]: 1.29 |
| Cc1ccc(Cn2cc(CCC(=O)Nc3ccc(CCCCc4nnc(NC(=O)Cc5ccccn5)s4)nn3)nn2)c(C)c1 | 6.68 | 6.14 | 6.70 | 6.96 | – |
| COc1ccc(Cn2cc(CCC(=O)Nc3nnc(CCCCc4nnc(NC(=O)Cc5ccccc5)s4)s3)nn2)cc1 | 6.12 | 6.25 | 5.26 | 6.29 | – |
| O=C(CCCC(=O)Nc1ccc(CCCCc2nnc(NC(=O)Cc3ccccn3)s2)nn1)NCCNC(=S)Nc1ccc2c(c1)C1(OC2=O)c2ccc(O)cc2Oc2cc(O)ccc21 | – | – | – | – | Activity [8]: Not Active; fold change (FC) [9]: 2; pKd [10]: 6.35; pKd [4]: 6.21; Activity [11]: Dose-dependent effect |
